Among the data in PubChem BioAssay (NCI) are TGI values, retold here.

Each structure is given as a SMILES string.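 48-hour exposure; five concentrations; linearly interpolated endpoints. TGI is the concentration that stops growth completely.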

Test systems include SK-MEL-2 melanoma; SK-MEL-28 melanoma; SF-539 CNS; M14 melanoma; UO-31 renal; MDA-N; NCI-H23 lung; SF-295 CNS; LOX IMVI melanoma; T-47D breast; SR leukemia; A549 NSCLC; PC-3 prostate; IGROV1 ovarian; HCT-116 colon; NCI-H522 lung; KM12 colon; EKVX NSCLC.
Experiment in all cases: inhibition of tumour cell growth, NCI panel, 48 h

For `Cc1cc(C)n(-c2nc3ccccc3c(=O)n2-c2ccccc2)n1`, the TGI in the assay on SK-MEL-2 melanoma was > 100 µM; in the assay on SK-MEL-28 melanoma, > 100 µM; with SF-539 CNS, > 100 µM; with M14 melanoma it was > 100 µM; in the assay on UO-31 renal, 14.3 µM; with MDA-N, > 100 µM. Also, the TGI with NCI-H23 lung, in the assay with SF-295 CNS, with LOX IMVI melanoma, in the assay on T-47D breast, in the assay with SR leukemia and in the assay on A549 NSCLC was > 100 µM throughout. Moreover, the TGI in the assay on PC-3 prostate, with IGROV1 ovarian, in the assay on HCT-116 colon and in the assay on NCI-H522 lung was > 100 µM throughout.

As for `CN1C(=O)[C@@H]2N(CSC2(C)C)C1=S`, the TGI with SK-MEL-2 melanoma, in the assay on SK-MEL-28 melanoma, in the assay on SF-539 CNS, in the assay with M14 melanoma, in the assay with UO-31 renal and in the assay on MDA-N was > 100 µM each time. The TGI in the assay on NCI-H23 lung, in the assay on SF-295 CNS, in the assay on T-47D breast, in the assay with KM12 colon, in the assay on EKVX NSCLC and in the assay with SR leukemia was > 100 µM in each case. The TGI with A549 NSCLC, in the assay on PC-3 prostate, with IGROV1 ovarian, with HCT-116 colon and with NCI-H522 lung was > 100 µM throughout.

On to `O=C1Oc2ccccc2C(=O)/C1=C/N1C(=O)N/C(=C\c2cccc(O)c2)C1=O`, for which the TGI in the assay with SK-MEL-2 melanoma, in the assay with SK-MEL-28 melanoma, in the assay with SF-539 CNS, in the assay on M14 melanoma, in the assay with UO-31 renal and in the assay on MDA-N was > 100 µM throughout. In addition, the TGI in the assay on NCI-H23 lung, in the assay with SF-295 CNS, in the assay with LOX IMVI melanoma, with T-47D breast, in the assay on KM12 colon and with EKVX NSCLC was > 100 µM each time. Also, the TGI in the assay on A549 NSCLC, with PC-3 prostate, with IGROV1 ovarian and in the assay with HCT-116 colon was > 100 µM throughout.

Turning to `COc1ccc2c(c1)CCCN1Cc3cc(OC)c(OC)cc3CC21` (stereo not given), the TGI in the assay on SK-MEL-28 melanoma was > 100 µM; in the assay with SF-539 CNS, > 100 µM; in the assay on M14 melanoma, 44.1 µM; with UO-31 renal it was > 100 µM; in the assay with MDA-N it was > 100 µM; in the assay on NCI-H23 lung, > 100 µM. For the same molecule, the TGI in the assay with SF-295 CNS, with LOX IMVI melanoma, with T-47D breast, in the assay with KM12 colon, in the assay on EKVX NSCLC and in the assay on A549 NSCLC was > 100 µM each time. The TGI in the assay with PC-3 prostate, in the assay on IGROV1 ovarian, with HCT-116 colon and in the assay with NCI-H522 lung was > 100 µM in each case.

`C[C@H]1CCCCC[C@@H]2CC(=O)CC2C(=O)CCC(=O)O1` (stereo not given in full): the TGI with SK-MEL-28 melanoma, in the assay on SF-539 CNS, in the assay with M14 melanoma, in the assay on MDA-N, with NCI-H23 lung and in the assay with SF-295 CNS was > 100 µM each time. The TGI with T-47D breast, with KM12 colon, with EKVX NSCLC, with SR leukemia, in the assay on A549 NSCLC and in the assay on PC-3 prostate was > 100 µM throughout. The TGI with IGROV1 ovarian, in the assay on HCT-116 colon and with NCI-H522 lung was > 100 µM each time.

Consider `NC1CC(=O)c2csc(Cl)c21` (stereo not given), for which the TGI in the assay on SK-MEL-2 melanoma was found to be 30.7 µM; in the assay on SK-MEL-28 melanoma, 46.3 µM; in the assay on SF-539 CNS, 9.56 µM; in the assay with M14 melanoma, 23.7 µM; in the assay on UO-31 renal it was 12.7 µM; in the assay on MDA-N it was 22 µM. Further, the TGI in the assay on NCI-H23 lung was 54 µM; with SF-295 CNS it was 32 µM; in the assay on LOX IMVI melanoma, 24.1 µM; in the assay with T-47D breast it was > 23.6 µM; with KM12 colon, 17.4 µM; with EKVX NSCLC it was 35.9 µM. The TGI was 36.7 µM in the assay with A549 NSCLC; 23.9 µM in the assay with PC-3 prostate; 42.2 µM in the assay on IGROV1 ovarian; 14.1 µM in the assay with HCT-116 colon; 3.32 µM in the assay with NCI-H522 lung.

On to `Cc1ccsc1C(=O)C(CC(=O)c1cccs1)c1ccsc1` (stereo not given), for which the TGI with SK-MEL-28 melanoma, in the assay on SF-539 CNS, with M14 melanoma, in the assay on UO-31 renal, in the assay with MDA-N and with NCI-H23 lung was > 100 µM throughout. Further, the TGI with SF-295 CNS is > 100 µM; with T-47D breast, 77.1 µM; with KM12 colon it was > 100 µM; in the assay with EKVX NSCLC it was > 100 µM; in the assay with SR leukemia, > 100 µM; in the assay on A549 NSCLC, > 100 µM. For the same molecule, the TGI in the assay on PC-3 prostate, in the assay on IGROV1 ovarian, in the assay on HCT-116 colon and in the assay on NCI-H522 lung was > 100 µM throughout.

Take `O=C(O)Cc1cccc2c1OC(c1ccccc1)C(C(=O)c1ccccc1)C2=O` (stereo not given): the TGI in the assay on SK-MEL-28 melanoma, with SF-539 CNS, in the assay with UO-31 renal, in the assay with MDA-N, in the assay on NCI-H23 lung and in the assay on SF-295 CNS was > 100 µM throughout. The TGI in the assay with LOX IMVI melanoma was > 100 µM; in the assay on T-47D breast it was 56.9 µM; in the assay with KM12 colon it was > 100 µM; in the assay on EKVX NSCLC, > 100 µM; in the assay on SR leukemia, > 100 µM; with A549 NSCLC, > 100 µM. In addition, the TGI in the assay on PC-3 prostate, with IGROV1 ovarian, in the assay with HCT-116 colon and with NCI-H522 lung was > 100 µM in each case.

Consider `COc1ccc(C2=Nn3c(nc4sc(-c5ccccc5)cc4c3=O)SC2)cc1`, for which the TGI with SK-MEL-28 melanoma, with SF-539 CNS, in the assay with UO-31 renal, in the assay with MDA-N, in the assay on NCI-H23 lung and in the assay on SF-295 CNS was > 100 µM in each case. The TGI in the assay on LOX IMVI melanoma, in the assay with T-47D breast, with KM12 colon, in the assay on EKVX NSCLC, in the assay on SR leukemia and in the assay with A549 NSCLC was > 100 µM throughout. The TGI with PC-3 prostate, in the assay on IGROV1 ovarian, in the assay on HCT-116 colon and with NCI-H522 lung was > 100 µM throughout.
